Data taken from US20170112791A1, “SOLID FORMULATIONS CONTAINING OMEGA-3 AND RESVERATROL” (SIGMA-TAU INDUSTRIE FARMACEUTICHE RIUNITE S.P.A., priority 2014, published 2017).

Tests used:
[1] = Stability after autoxidation induced by radiation (light, 24 hours); format: physicochemical; conditions: initial tests (Tables 2 and 3: radiation and high temperature)
Experimental: (§1) The HPLC Analysis was the analysis performed in order to evaluate the stability of the formulations. It was performed using a Column Symmetry C-18 4.6×150 mm, a solution of CH3CN/CH3OH/H2O 45/45/10 as eluent, a flow of 1 ml/min and a Mass spectrometry Detector. The percent amount of EPA and DHA detected are expressed as % by weight. Other stability tests were also performed:
Stability analysis after autoxidation induced by radiation and by high temperature was performed according to the following procedure: • Autoxidation induced by radiation: an amount of 100 mg of the formulation is dispersed in a 5 cm diameter Petri dish, which is placed at a distance of 12 cm from the light source and exposed to light for 24 hours. The light source is constituted by a 13 W lamp with an emission spectrum of from 300 to 640 nm, with peaks at: 440, 490, 540, 590 and 610 nm. The test is carried out at 22° C. at 60% RH • autoxidation induced by high temperature: an amount of 100 mg of the formulation is placed in an amber container and put in a stove at 60° C. for 1 month

[2] = Stability analysis of solid formulations on storage (HPLC recovery of EPA and DHA); format: physicochemical
Experimental: The formulations were divided into 3 groups and left respectively for 3 and 6 months at 25° C. at 60% RH (relative humidity), for 3 and 6 months at 30° C. at 60% RH or for 3 and 6 months at 40° C. at 70% RH.
as §1
n-3 PUFA were added to Neusilin U.S.-2 in small portions, manually mixing up to obtain a homogeneous solid. Stability tests are carried out at 25° C. at 60% RH, 30° C. at 60% RH and 40° C. at 70% RH as described above for 1, 3 and 6 months.

Row | Structure (SMILES) | improvement of stability of EPA and DHA in the initial tests [1] | ability to maintain stable solid formulations containing omega-3 for longer periods ([2]; data of Table 4, 3 months) | antioxidant power with respect of that of α-tocopherol ([2]; from recovery after 3 months at 40° C., 1% antioxidant)
1 | CCCCCCCCCCCCCCCC(=O)OC[C@H](O)[C@H]1OC(=O)C(O)=C1O [Ascorbyl palmitate, ascorbyl palmitate] | able to improve the stability | – | –
2 | COC1=C(OC)C(=O)C(C/C=C(\C)CC/C=C(\C)CC/C=C(\C)CC/C=C(\C)CC/C=C(\C)CC/C=C(\C)CC/C=C(\C)CC/C=C(\C)CC/C=C(\C)CCC=C(C)C)=C(C)C1=O [Coenzyme Q10] | able to improve the stability | – | –
3 | Oc1ccc(/C=C/c2cc(O)cc(O)c2)cc1 [Resveratrol, 3,5,4′-trihydroxy-trans-stilbene] | able to improve the stability | the only natural antioxidant able to maintain stable solid formulations containing omega-3 for longer periods | twice
4 | Cc1c(C)c2c(c(C)c1O)CC[C@@](C)(CCC[C@H](C)CCC[C@H](C)CCCC(C)C)O2 [α-tocopherol] | able to improve the stability | – | –
